Experiments:
[1] = molecular target: T1, OTUD7B (Homo sapiens, UniProt Q6GQQ9); assay: In vitro OTUD7B deubiquitination assay, K11-linked di-ub cleavage; type: biochemical
T1 construct: OTUD7B (residues 56-446); GST (N, cleaved yes); made in house; host or cells: E. coli BL21-Codon Plus (DE3)-RIL
T1 sequence (Q6GQQ9 56-446): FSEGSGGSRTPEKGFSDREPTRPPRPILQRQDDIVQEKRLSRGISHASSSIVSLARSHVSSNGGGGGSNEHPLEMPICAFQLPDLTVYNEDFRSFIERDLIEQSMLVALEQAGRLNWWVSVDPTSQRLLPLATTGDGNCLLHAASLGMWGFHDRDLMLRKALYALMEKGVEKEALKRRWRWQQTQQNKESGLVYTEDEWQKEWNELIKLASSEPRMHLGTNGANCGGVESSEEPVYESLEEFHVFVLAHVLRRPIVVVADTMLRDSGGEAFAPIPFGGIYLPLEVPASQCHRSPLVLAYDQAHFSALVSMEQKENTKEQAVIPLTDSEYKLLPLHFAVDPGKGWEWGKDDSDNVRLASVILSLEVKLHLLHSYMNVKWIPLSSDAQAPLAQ
From the text: (§1) OTUD7B (residues 56-446), OTUD7A (residues 1-462), USP21 (residues 196-565), and USP9X (residues 1551-1970) proteins were expressed in E. Coli BL21-Codon Plus (DE3)-RIL cells. Through an N-terminal GST tag, the DUBs were purified by affinity chromatography using glutathione sepharose 4B (GS4B) resin. Following the liberation of the DUB from the GST tag. the DUBs were subjected to size exclusion chromatography (SEC). To form the K11-linked di-ub, individual ubiquitins (K11R-substituted donor Ub and ΔGG acceptor ubiquitin) were purified and fluorescently-labeled on an N-terminal cysteine using either Cy3- (donor) or Cy5-maleimide (acceptor). The different ubiquitins were then added to a mixture containing UBA1, UBE2S, and MgATP to form di-ub. After an overnight incubation at room temperature, UBE2S was removed by cation-exchange chromatography and the di-ub was purified by SEC. These proteins were used to monitor DUB activity in the presence or absence of the various inhibitors. The inhibitors were incubated with DUBs in a reaction buffer (20 mM Hepes pH=8.0, 200 mM NaCl, 0.25 mg/mL BSA and 0.005% Tween-20) for 5 min at room temperature and then 0.5 uM fluorescently-labeled di-ub (K11-linked) was added to start the reaction. 5×SDS-PAGE loading buffer was used to quench the reaction at the indicated time point. […] Mono-ubiquitin was quantified to generate an IC50 value. […]

[2] = molecular target: T2, USP21 (Homo sapiens, UniProt Q9UK80); assay: In vitro USP21 deubiquitination assay, K11-linked di-ub cleavage; type: biochemical; settings: 80 nM USP21, 10 min
T2 construct: USP21 (residues 196-565); GST (N, cleaved yes); made in house; host or cells: E. coli BL21-Codon Plus (DE3)-RIL
T2 sequence (Q9UK80 196-565): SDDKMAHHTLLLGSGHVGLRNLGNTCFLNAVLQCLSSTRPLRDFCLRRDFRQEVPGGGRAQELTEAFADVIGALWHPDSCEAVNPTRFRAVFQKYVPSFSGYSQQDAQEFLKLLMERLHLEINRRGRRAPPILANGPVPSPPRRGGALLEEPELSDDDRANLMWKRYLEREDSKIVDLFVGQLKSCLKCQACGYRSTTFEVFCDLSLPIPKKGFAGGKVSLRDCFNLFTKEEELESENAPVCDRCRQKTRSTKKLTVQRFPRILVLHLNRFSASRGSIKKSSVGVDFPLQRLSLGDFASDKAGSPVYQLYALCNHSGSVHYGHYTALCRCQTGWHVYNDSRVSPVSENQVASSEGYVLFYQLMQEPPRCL
From the text: as §1

[3] = test system: A549 cells; assay: Colony formation / growth of A549 cells; type: cell-based; settings: treated once for 10 days
Experimental: 500 cells from OTUD7B depleted A549 cells were seeded into each well of 6-well plates and cultured in the 37° C. incubator with 5% CO2 for 10-15 days until formation of visible colonies. Triplicates were performed. To test the effect of a given inhibitor on colony formation ability, 800 cells from A549, H520 and H1299 cell lines were seeded into each well of 6-well plates, respectively. Each inhibitor was added at indicated concentration the next day. Colonies were counted after 10 days of treatment. The colony staining method was as described. […] Colony numbers were counted manually. […]
2,000 cells from indicated NSLC cell lines were seeded into each well of 96-well plates. Cell viability was measured 3 days post-treatment using MTT assays following manufacturer's instruction. […] Inhibitor was added the next day at indicated concentration and cell viability was measured after 3-day treatment. For cell proliferation assays in THP1, K562 and HL60 cell lines, 1×10^6 cells from each indicated cell line were seeded in 12.5 cm2 cell culture flask and cells were counted by hemocytometer under microscope at indicated time to monitor cell proliferation. […] Inhibitor was added the next day at indicated concentrations and cell number was counted after 3 days treatment. […]

**Q.** What does the source list for Cc1cc(NC(=O)c2cnn(C)c2C(=O)Nc2cc(C)nn2C2CCCC2)n(C2CCCC2)n1 [7Bi]?
**A.** IC50 ([1]; 0.5 uM K11-diub and 5 nM active OTUD7B, 10 min, read-out: IC50, OTUD7B catalytic activity): ~40 µM; suppression of OTUD7B-mediated K11-diub cleavage by purified 7Bi ([1]; HPLC purified 7Bi (~99% purity) compared with 90% purity): retained its ability to suppress OTUD7B-mediated K11-diub cleavage in vitro; inhibition of USP21 [2]: failed to inhibit; cell growth [3]: reduced growth
